Laboratory results published in PubChem BioAssay AID1963854 (Molecular Pharmacology Branch, DTP, NCI, 2024).

System: 186277-243-T-J2-PDC complex spheroid viability
Assay: Anticancer human tumor 186277-243-T-J2-PDC patient-derived colon adenocarcinoma cell line growth inhibition [POLQ]
Settings: for IC50: curve of first compound; for viability, T/C: stronger effect = lower value; active = viability on the fitted dose curve at most 10% of control; inactive = the rest
Summary of the method: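 Three-cell-type spheroids modelling solid tumor plus stroma served as the readout system; POL inhibitors were tested individually and in combination, concentration ranges set by clinical Cmax where known.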

[1] = second compound 0.0316 µM, first compound 0.00316 µM
[2] = second compound 0.0316 µM, first compound 0.01 µM
[3] = second compound 0.0316 µM, first compound 0.0316 µM
[4] = second compound 0.0316 µM, first compound 0.1 µM
[5] = second compound 0.0316 µM, first compound 0.316 µM
[6] = second compound 0.0316 µM, first compound 1 µM
[7] = second compound 0.1 µM, first compound 0.00316 µM
[8] = second compound 0.1 µM, first compound 0.01 µM
[9] = second compound 0.1 µM, first compound 0.0316 µM
[10] = second compound 0.1 µM, first compound 0.1 µM
[11] = second compound 0.1 µM, first compound 0.316 µM
[12] = second compound 0.1 µM, first compound 1 µM
[13] = second compound 0.316 µM, first compound 0.00316 µM
[14] = second compound 0.316 µM, first compound 0.01 µM
[15] = second compound 0.316 µM, first compound 0.0316 µM
[16] = second compound 0.316 µM, first compound 0.1 µM
[17] = second compound 0.316 µM, first compound 0.316 µM
[18] = second compound 0.316 µM, first compound 1 µM
[19] = second compound 1 µM, first compound 0.00316 µM
[20] = second compound 1 µM, first compound 0.01 µM
[21] = second compound 1 µM, first compound 0.0316 µM
[22] = second compound 1 µM, first compound 0.1 µM
[23] = second compound 1 µM, first compound 0.316 µM
[24] = second compound 1 µM, first compound 1 µM
[25] = second compound 3.16 µM, first compound 0.00316 µM
[26] = second compound 3.16 µM, first compound 0.01 µM
[27] = second compound 3.16 µM, first compound 0.0316 µM
[28] = second compound 3.16 µM, first compound 0.1 µM
[29] = second compound 3.16 µM, first compound 0.316 µM
[30] = second compound 3.16 µM, first compound 1 µM
[31] = second compound 10 µM, first compound 0.00316 µM
[32] = second compound 10 µM, first compound 0.01 µM
[33] = second compound 10 µM, first compound 0.0316 µM
[34] = second compound 10 µM, first compound 0.1 µM
[35] = second compound 10 µM, first compound 0.316 µM
[36] = second compound 10 µM, first compound 1 µM
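Note: spheroids exposed to compounds for seven days.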
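Throughout, for viability, T/C: 100% = DMSO vehicle control viability.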

COc1cccc(OCCCN)c1-c1cc(Nc2cnc(C#N)cn2)n[nH]1 + Cc1cccc(N(C)C(=O)C2C(O)CCN2c2nc(C)cc(C(F)(F)F)c2C#N)c1
< 0.00316 µM: IC50 (second compound 0.0316 µM) | IC50 (second compound 0.1 µM) | IC50 (second compound 0.316 µM) | IC50 (second compound 1 µM) | IC50 (second compound 3.16 µM) | IC50 (second compound 10 µM)
active: viability, T/C [5] 9.49% | viability, T/C [6] 10.2% | viability, T/C [10] 9.64% | viability, T/C [11] 10.2% | viability, T/C [12] 9.26% | viability, T/C [15] 10.7% | viability, T/C [16] 10.1% | viability, T/C [17] 9.4% | viability, T/C [18] 8.53% | viability, T/C [21] 9.4% | viability, T/C [22] 9.54% | viability, T/C [23] 9.34% | viability, T/C [24] 9.69% | viability, T/C [27] 9.08% | viability, T/C [28] 9.36% | viability, T/C [29] 9.81% | viability, T/C [30] 9.01% | viability, T/C [32] 9.92% | viability, T/C [33] 8.74% | viability, T/C [34] 8.3% | viability, T/C [35] 9.78% | viability, T/C [36] 9.02%
inactive: viability, T/C [1] 38.4% | viability, T/C [2] 14.9% | viability, T/C [3] 11.1% | viability, T/C [4] 10% | viability, T/C [7] 33.4% | viability, T/C [8] 15.7% | viability, T/C [9] 10.9% | viability, T/C [13] 30.1% | viability, T/C [14] 12% | viability, T/C [19] 30.9% | viability, T/C [20] 11.5% | viability, T/C [25] 34.2% | viability, T/C [26] 11.5% | viability, T/C [31] 17.9%

CC[C@@]1(O)C(=O)OCc2c1cc1n(c2=O)Cc2cc3c(CN(C)C)c(O)ccc3nc2-1 + Cc1cccc(N(C)C(=O)C2C(O)CCN2c2nc(C)cc(C(F)(F)F)c2C#N)c1
0.0936 µM: IC50 (second compound 0.316 µM)
0.0846 µM: IC50 (second compound 3.16 µM)
0.0616 µM: IC50 (second compound 10 µM)
0.0984 µM: IC50 (second compound 0.1 µM)
0.0933 µM: IC50 (second compound 0.0316 µM)
inactive: viability, T/C (second compound 0.0316 µM, first compound 0.000316 µM) 112% | viability, T/C (second compound 0.0316 µM, first compound 0.001 µM) 83.4% | viability, T/C [1] 90.6% | viability, T/C [2] 104% | viability, T/C [3] 67% | viability, T/C [4] 48.9% | viability, T/C (second compound 0.1 µM, first compound 0.000316 µM) 102% | viability, T/C (second compound 0.1 µM, first compound 0.001 µM) 96.7% | viability, T/C [7] 96% | viability, T/C [8] 103% | viability, T/C [9] 74.8% | viability, T/C [10] 49.6% | viability, T/C (second compound 0.316 µM, first compound 0.000316 µM) 83.1% | viability, T/C (second compound 0.316 µM, first compound 0.001 µM) 106% | viability, T/C [13] 99.4% | viability, T/C [14] 118% | viability, T/C [15] 71.7% | viability, T/C [16] 48.7% | viability, T/C (second compound 1 µM, first compound 0.000316 µM) 105% | viability, T/C (second compound 1 µM, first compound 0.001 µM) 96.9% | viability, T/C [19] 96.7% | viability, T/C [20] 114% | viability, T/C [21] 74% | viability, T/C [22] 46.4% | viability, T/C (second compound 3.16 µM, first compound 0.000316 µM) 102% | viability, T/C (second compound 3.16 µM, first compound 0.001 µM) 100% | viability, T/C [25] 96.2% | viability, T/C [26] 115% | viability, T/C [27] 73.9% | viability, T/C [28] 45.9% | viability, T/C (second compound 10 µM, first compound 0.000316 µM) 115% | viability, T/C (second compound 10 µM, first compound 0.001 µM) 96.2% | viability, T/C [31] 104% | viability, T/C [32] 87.5% | viability, T/C [33] 59.8% | viability, T/C [34] 42.6%
0.086 µM: IC50 (second compound 1 µM)

CCCS(=O)(=O)Nc1ccc(F)c(C(=O)c2c[nH]c3ncc(-c4ccc(Cl)cc4)cc23)c1F + Cc1cccc(N(C)C(=O)C2C(O)CCN2c2nc(C)cc(C(F)(F)F)c2C#N)c1
> 10 µM: IC50 (second compound 0.0316 µM) | IC50 (second compound 0.1 µM) | IC50 (second compound 0.316 µM) | IC50 (second compound 1 µM) | IC50 (second compound 3.16 µM) | IC50 (second compound 10 µM)
inactive: viability, T/C [3] 83% | viability, T/C [4] 101% | viability, T/C [5] 80.6% | viability, T/C [6] 95.6% | viability, T/C (second compound 0.0316 µM, first compound 3.16 µM) 82.8% | viability, T/C (second compound 0.0316 µM, first compound 10 µM) 58% | viability, T/C [9] 87.7% | viability, T/C [10] 91.2% | viability, T/C [11] 79.3% | viability, T/C [12] 92.4% | viability, T/C (second compound 0.1 µM, first compound 3.16 µM) 76.8% | viability, T/C (second compound 0.1 µM, first compound 10 µM) 56.8% | viability, T/C [15] 85.9% | viability, T/C [16] 108% | viability, T/C [17] 87% | viability, T/C [18] 88.2% | viability, T/C (second compound 0.316 µM, first compound 3.16 µM) 77.8% | viability, T/C (second compound 0.316 µM, first compound 10 µM) 52.8% | viability, T/C [21] 106% | viability, T/C [22] 89.3% | viability, T/C [23] 99.9% | viability, T/C [24] 79.7% | viability, T/C (second compound 1 µM, first compound 3.16 µM) 89.7% | viability, T/C (second compound 1 µM, first compound 10 µM) 51% | viability, T/C [27] 115% | viability, T/C [28] 88% | viability, T/C [29] 83.5% | viability, T/C [30] 83.4% | viability, T/C (second compound 3.16 µM, first compound 3.16 µM) 77.3% | viability, T/C (second compound 3.16 µM, first compound 10 µM) 56.9% | viability, T/C [33] 93.4% | viability, T/C [34] 86.9% | viability, T/C [35] 93.2% | viability, T/C [36] 83.9% | viability, T/C (second compound 10 µM, first compound 3.16 µM) 88.1% | viability, T/C (second compound 10 µM, first compound 10 µM) 56.1%
